Columns and labels:
[1] = Cu^+ binding by 1H NMR titration; settings: 1H NMR titration with Cu(MeCN)4BF4, CD3CN/CDCl3 4/1, 298 K
Protocol: Binding abilities and complexation constants of the examples of calix[4]arenes of the present invention and the comparative examples with Cu^+ were evaluated by ^1H NMR titrations at 298 K using copper(I)tetrakis(acetronitrile)tetrafluoroborate.
For example, for each separate calix[4]arene a stock solution of the tested calix[4]arene was prepared in a CD3CN/CDCl3, 4/1 mixture. Using this stock solution, a Cu(MeCN)4BF4 solution was prepared and added by steps of 0.25 equivalent of copper(I) up until 1 equivalent and then by steps of 0.5 equivalent until a total of at least 2 equivalents. ^1H NMR spectra were recorded at a 400 MHz spectrometer at 298 K for the stock solutions of the calix[4]arenes and after each addition of Cu(MeCN)4BF4.
Calix[4]arenes for which a gradual change of the chemical shifts of the ^1H NMR signals (>0.1 ppm for at least one of the signals) was observed upon addition of up to 4-5 equivalents of Cu(MeCN)4BF4 were considered to show weak binding.

[2] = test system: A549 human lung cancer cell line; assay: Inhibition of A549 cell proliferation (cell count); format: cell-based; settings: 2 μM, until 72 hours
Protocol: The inhibition of a A549 human lung cancer cell line proliferation by the calix[4]arene of the formula (2) was determined by exposure of said A549 human lung cancer cell line to a concentration of 2 μM of the calix[4]arene of the formula (2) until 72 hours. The absolute number of cells were counted in the treated and untreated conditions before treatment (N0) and after 72 hours (Nt).
The FIG. 1 is a graph showing: • the profile of the proliferation index Nt/N0 of the A549 cells after exposure with the calix[4]arene of the formula (2) with respect to the time (i.e. the curve entitled “calix[4]arene (2)”), • the profile of the proliferation index Nt/N0 of the A549 cells without any exposure with the calix[4]arene of the formula (2) with respect to the time (i.e. the curve entitled “untreated”).
“Nt” is number of cells at time “t” and “No” is number of cells before treatment.

[3] = test system: A549 human lung cancer cells; assay: MTS cytotoxicity assay on A549; format: cell-based; settings: A549, 72 hours of treatment
Protocol: A549 human lung cancer cells were seeded in 96-well plates together with the calix[4]arene of the formula (2). Cells were grown in RPMI-1640 supplemented with GlutaMAX™ (Gibco™) and fetal calf serum (FCS, 10%) and treated with a broad range of concentrations of the calix[4]arene of the formula (2). After 72 hours of treatment, the cytotoxicity was measured by means of the IC50 value, using the kit “CellTiter 96R AQuous One Solution Cell Proliferation Assay (MTS)” from Promega™. Following 30 minutes of incubation with the MTS reagent, the endpoint measurements were done in triplicate at 485 nm, using a fluorescence plate reader.
A549 human lung cancer cells were seeded in 96-well plates together with the compound of the 2nd comparative example of the formula (XI). Cells were grown in RPMI-1640 supplemented with GlutaMAX™ (Gibco™) and fetal calf serum (FCS, 10%) and treated with a broad range of concentrations of the 2nd comparative example of the formula (XI). After 72 hours of treatment, the cytotoxicity was measured by means of the IC50 value, using the kit “CellTiter 96R AQuous One Solution Cell Proliferation Assay (MTS)” from Promega™. Following 30 minutes of incubation with the MTS reagent, the endpoint measurements were done in triplicate at 485 nm, using a fluorescence plate reader. […]

[4] = test system: A172; assay: PROLiFiler-Cell Panel Screening (CellTiterGlo); format: cell-based; settings: Homo sapiens, A 172; Brain, A172, 72 hours
Protocol: (§1) For the assays, cells were seeded in white cell culture-treated flat and clear bottom 384-well multiwall plates and incubated at 37° C. overnight before the calix[4]arene of the formula (2) or the reference compound were added. After incubation for 72 hours at 37° C. at 5% or 10% CO2 depending on the medium, cell plates were equilibrated to room temperature (i.e. 20° C.) for one hour, CellTiterGlo® reagent from the firm Promega was added and luminescence was measured approximately an hour later using a luminometer.
(§2) Raw data were converted into percent cell viability relative to the high and low control, which were set to 100% and 0%, respectively.

[5] = test system: A2058; assay: PROLiFiler-Cell Panel Screening (CellTiterGlo); format: cell-based; settings: Homo sapiens; Skin, A2058, 72 hours
Protocol: as §1, §2

[6] = test system: BEN; assay: PROLiFiler-Cell Panel Screening (CellTiterGlo); format: cell-based; settings: Lung, 72 hours
Protocol: as §1, §2

[7] = test system: COR-L279; assay: PROLiFiler-Cell Panel Screening (CellTiterGlo); format: cell-based; settings: Homo sapiens; Lung, COR-L279, 72 hours
Protocol: as §1, §2

[8] = test system: Caki-2; assay: PROLiFiler-Cell Panel Screening (CellTiterGlo); format: cell-based; settings: Homo sapiens; Kidney, Caki-2, 72 hours
Protocol: as §1, §2

[9] = test system: Colo 205; assay: PROLiFiler-Cell Panel Screening (CellTiterGlo); format: cell-based; settings: Homo sapiens; Colon, Colo 205, 72 hours
Protocol: as §1, §2

[10] = test system: DLD-1; assay: PROLiFiler-Cell Panel Screening (CellTiterGlo); format: cell-based; settings: Homo sapiens; Colon, DLD-1, 72 hours
Protocol: as §1, §2

[11] = test system: H1299; assay: PROLiFiler-Cell Panel Screening (CellTiterGlo); format: cell-based; settings: Homo sapiens, NCI-H1299; Lung, H1299, 72 hours
Protocol: as §1, §2

[12] = test system: H4; assay: PROLiFiler-Cell Panel Screening (CellTiterGlo); format: cell-based; settings: Brain, H4, 72 hours
Protocol: as §1, §2

[13] = test system: HCC38; assay: PROLiFiler-Cell Panel Screening (CellTiterGlo); format: cell-based; settings: Homo sapiens; Breast, HCC38, 72 hours
Protocol: as §1, §2

[14] = test system: HCC827; assay: PROLiFiler-Cell Panel Screening (CellTiterGlo); format: cell-based; settings: Homo sapiens; Lung, HCC827, 72 hours
Protocol: as §1, §2

[15] = test system: HCT-15; assay: PROLiFiler-Cell Panel Screening (CellTiterGlo); format: cell-based; settings: Homo sapiens; Colon, HCT-15, 72 hours
Protocol: as §1, §2

[16] = test system: HT-1080; assay: PROLiFiler-Cell Panel Screening (CellTiterGlo); format: cell-based; settings: Homo sapiens; Fibrosarcoma, HT-1080, 72 hours
Protocol: as §1, §2

[17] = test system: HeLa; assay: PROLiFiler-Cell Panel Screening (CellTiterGlo); format: cell-based; settings: Homo sapiens, Cervix, 72 hours
Protocol: as §1, §2

[18] = test system: KARPAS 299; assay: PROLiFiler-Cell Panel Screening (CellTiterGlo); format: cell-based; settings: Homo sapiens; Blood, KARPAS 299, 72 hours
Protocol: as §1, §2

[19] = test system: LOU-NH91; assay: PROLiFiler-Cell Panel Screening (CellTiterGlo); format: cell-based; settings: Lung, LOU-NH91, 72 hours
Protocol: as §1, §2

[20] = test system: MKN-1; assay: PROLiFiler-Cell Panel Screening (CellTiterGlo); format: cell-based; settings: Homo sapiens; Stomach, MKN-1, 72 hours
Protocol: as §1, §2

[21] = test system: MV4-11; assay: PROLiFiler-Cell Panel Screening (CellTiterGlo); format: cell-based; settings: Homo sapiens; Blood, MV4-11, 72 hours
Protocol: as §1, §2

[22] = test system: NCI-H1838; assay: PROLiFiler-Cell Panel Screening (CellTiterGlo); format: cell-based; settings: Homo sapiens; Lung, NCI-H1838, 72 hours
Protocol: as §1, §2

[23] = test system: SK-OV3; assay: PROLiFiler-Cell Panel Screening (CellTiterGlo); format: cell-based; settings: Homo sapiens, SK-OV-3; Ovary, SK-OV3, 72 hours
Protocol: as §1, §2

[24] = test system: T84; assay: PROLiFiler-Cell Panel Screening (CellTiterGlo); format: cell-based; settings: Homo sapiens; Colon, T84, 72 hours
Protocol: as §1, §2

[25] = test system: U251MG; assay: PROLiFiler-Cell Panel Screening (CellTiterGlo); format: cell-based; settings: Homo sapiens, U-251, Brain, 72 hours
Protocol: as §1, §2

[26] = test system: U2OS; assay: PROLiFiler-Cell Panel Screening (CellTiterGlo); format: cell-based; settings: Homo sapiens, Bone, 72 hours
Protocol: as §1, §2

Row | SMILES | IC50 [4] | IC50 [5] | IC50 [6] | IC50 [7] | IC50 [8] | IC50 [9] | IC50 [10] | IC50 [11] | IC50 [12] | IC50 [13] | IC50 [14] | IC50 [15] | IC50 [16] | IC50 [17] | IC50 [18] | IC50 [19] | IC50 [20] | IC50 [21] | IC50 [22] | IC50 [23] | other results
1 | CCCOc1c2cccc1Cc1cccc(c1OCc1nccn1C)Cc1cccc(c1OCCC)Cc1cccc(c1OCc1nccn1C)C2 [(2)] | 1210 nM | 938 nM | 3680 nM | 1510 nM | 2610 nM | 1810 nM | 1080 nM | 1300 nM | 2900 nM | 2530 nM | 1720 nM | 2020 nM | 1900 nM | 1700 nM | 1480 nM | 652 nM | 2160 nM | 671 nM | 3480 nM | 1620 nM | Cu^+ binding [1]: Strong binding (means an affinity constant (Ka) equal or greater than 10^5 M^−1); proliferation index Nt/N0 (FIG. 1) [2]: clearly inhibits the proliferation; IC50 [3]: 1560 nM; IC50 [24]: 2440 nM; IC50 [25]: 3530 nM; IC50 [26]: 1060 nM
2 | CC(C)C[C@H](NC(=O)[C@H](Cc1ccccc1)NC(=O)c1cnccn1)B(O)O [bortezomib, reference compound] | 4.77 nM | 9.24 nM | 53.1 nM | 4.94 nM | 12.8 nM | 6.79 nM | 6.83 nM | 8.42 nM | 8.36 nM | 5.41 nM | 8.4 nM | 9.25 nM | 13.8 nM | 18.7 nM | 3.96 nM | 7.04 nM | 4.32 nM | 3.13 nM | 34.1 nM | 24 nM | IC50 [24]: 12.1 nM; IC50 [25]: 9.16 nM; IC50 [26]: 5.83 nM

From patent US20260015339A1, “CALIX[4]ARENES WITH HIGH ANTICANCER ACTIVITY” (UNIVERSITE GRENOBLE ALPES, priority 2023, published 2026)
